Holding throughout (assay type): cell-based
The target in one assay is T1, PLK1 (Homo sapiens, UniProt P53350).
T1 construct: endogenous in cells; host or cells: HeLa LgBit (Plk1-HiBit KI): HeLa stably expressing LgBit, with HiBit knocked in at the endogenous Plk1 locus by CRISPR/Cas9
Put plainly: Luciferase assay for PLK1 in HeLa LgBit (Plk1-HiBit KI) cell line. The following applies: compound 300 nM, luminescence after 9 hours. The method, then:
2. Luciferase Assay for PLK1
(1) Preparation and Culture of HeLa LgBit (Plk1-HiBit KI) Cell Line
A HeLa cell line in which the LgBit vector was transfected and expressed stably was prepared. Then, after constructing gRNA and donor to express the HiBit amino acid sequence behind the C-terminal of the Plk1 gene, which was inherent in the cell, it was inserted into the cell together with a vector capable of expressing CRISPR/Cas9. Only the cells in which the insertion was completed and knock-in had progressed were selected, sub-cultured and used.
(2) Treatment of Compounds of the Present Invention and Method of Luciferase Assay
In the case of HeLa LgBit (Plk1-HiBit KI), the compounds were treated after being released after thymidine block, and the process was as follows. Thymidine (Sigma-Aldrich Cat. No. T9250-5G) was completely dissolved in DW and used in the experiment. For thymidine block, the products were treated with 2 mM of thymidine and then incubated for 24 hours. For release and chemical treatment, the medium was suctioned and washed with 1×PBS. TrypLE™ was added and incubated in 37° C. CO2 incubator for 5 min. Cells neutralized by adding complete media were counted through a counter. For each well of a 96-well culture plate (SPL), 3.3×10^4 cells and a total medium volume of 150 μL were seeded and incubated in a CO2 incubator.
Each cell line was incubated in a CO2 incubator for 18 hours, and Endurazine was added to each well to make up 4% of the total volume. After adding the compound of the present invention in a 96-well white plate (SPL) to a concentration of 300 nM, the wavelength of the plate reader (BMG Labtech, CLARIOstar Plus) was set to […], and then the luminescence was tracked in real time.
In Table 2, Activity represents the ratio of the luminescence value of each Exemplary Compound treatment group to DMSO treatment group (+++: <0.3, ++<0.6, +<0.7).
(The HiBiT peptide binds its large partner to form an active luciferase.)

For a further assay, the system named is H526 cell line. Briefly: Cell viability assay for NCI-H526 cell line (EZ-Cytox). Conditions: Homo sapiens, NCI-H526, 120 h; H526 cells, 3-fold dilutions 3000 nM to 0.46 nM, 5 days. As to the method: (1) Culture of NCI-H526 Cell Line
(2) Treatment of Compounds of the Present Invention and Method of Cell Viability Assay
After treating the compound to each well to make the total volume of 200 μL, it was cultured in a CO2 incubator (Thermo Fisher Science, Cat. No. 4111) for 5 days.
The absorbance of the completely cultured sample was measured by setting the wavelength of a plate reader (BMG Labtech, CLARIOstar Plus) to […], and was measured after shaking for 3 minutes in a plate reader before measurement.
In Table 3, Activity represents IC50 value of each Exemplary Compound treatment group to H526 cell line (A: <30 nM, B: <50 nM, C: <100 nM, D: <200 nM, E: <400 nM).

The subject of the next assay is MRC-5 cell line. Briefly: Cell viability assay for MRC-5 cell line (EZ-Cytox cytotoxicity experiment). Conditions: Homo sapiens, MRC5, 120 h, MRC-5 normal cell line, 5 days. The method, then:
4. Cell Viability Assay for MRC-5 Cell Line
(1) Culture of MRC-5 Cell Line
Passage of cultured cells was maintained within P15.
(2) Treatment of Compounds of the Present Invention
Then, it was cultured in 37° C.
(3) Cytotoxicity Experiment
CO2 incubator for 4 hours.

The mark [1] stands for this setting: highest concentration 10000 nM, N.D. = no cytotoxicity until 10 μM, read-out: Activity: IC50 value to MRC-5 cell line, N.D. cells.

Like-named read-outs stand apart in the source and are kept apart here. A value given as a limit tells only on which side of the number the result lay.

The source of these data is patent US20250101025A1, “NOVEL PLK1 DEGRADATION INDUCING COMPOUND” (UPPTHERA, INC., priority 2021, published 2025).

T1 sequence (P53350 whole entry): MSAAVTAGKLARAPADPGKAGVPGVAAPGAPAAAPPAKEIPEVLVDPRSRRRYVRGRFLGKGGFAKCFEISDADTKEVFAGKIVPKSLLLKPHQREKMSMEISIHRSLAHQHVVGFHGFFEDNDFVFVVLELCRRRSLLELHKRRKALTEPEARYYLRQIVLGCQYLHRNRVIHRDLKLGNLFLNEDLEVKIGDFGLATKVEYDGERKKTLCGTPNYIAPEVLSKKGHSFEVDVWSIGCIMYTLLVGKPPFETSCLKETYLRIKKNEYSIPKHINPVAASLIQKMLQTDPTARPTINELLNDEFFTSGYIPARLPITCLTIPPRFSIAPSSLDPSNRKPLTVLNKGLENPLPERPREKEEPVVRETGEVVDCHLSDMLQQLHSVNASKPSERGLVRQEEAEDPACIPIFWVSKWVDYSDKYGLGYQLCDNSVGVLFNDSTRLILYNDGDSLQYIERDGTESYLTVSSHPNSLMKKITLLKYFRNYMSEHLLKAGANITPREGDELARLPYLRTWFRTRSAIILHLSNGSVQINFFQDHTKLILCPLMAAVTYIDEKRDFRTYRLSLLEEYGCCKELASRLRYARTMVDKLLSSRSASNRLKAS

Regarding `COc1cc(C(=O)NC2CC3(CCN(CC4CCN(c5ccc(N(C)C6CCC(=O)NC6=O)cc5F)CC4)CC3)C2)ccc1Nc1ncc2c(n1)N(C(C)C)CC(F)(F)C(=O)N2C` (centres unmarked) [Compound 26, 4-((7,7-difluoro-9-isopropyl-5-methyl-6-oxo-6,7,8,9-tetrahydro-5H-pyrimido[4,5-b][1,4]diazepin-2-yl)amino)-N-(7-((1-(4-((2,6-dioxopiperidin-3-yl)(methyl)amino)-2-fluorophenyl)piperidin-4-yl)methyl)-7-azaspiro[3.5]nonan-2-yl)-3-methoxybenzamide], the “Activity: ratio of the luminescence value of each Exemplary Compound treatment group to DMSO treatment group” value (“Activity: ratio” below) on PLK1 is “+++ (+++: <0.3)”. The IC50 (commonly the concentration that gives 50% inhibition) in the assay with H526 cell line was less than 50 nM; in the assay with MRC-5 cell line (3-fold dilutions 10000 nM to 1.52 nM, Exemplary Compounds, numeric values, read-out: Activity: IC50 value (nM) to MRC-5 cell line), 6550 nM.

Turning to `COc1cc(C(=O)NC2CCN(C(=O)CCN3CCN(c4ccc(N(C)C5CCC(=O)NC5=O)cc4F)CC3)CC2)ccc1Nc1ncc2c(n1)N(C1CCCC1)CC(F)(F)C(=O)N2C` (centres unmarked) [Compound 16, 4-((9-cyclopentyl-7,7-difluoro-5-methyl-6-oxo-6,7,8,9-tetrahydro-5H-pyrimido[4,5-b][1,4]diazepin-2-yl)amino)-N-(1-(3-(4-(4-((2,6-dioxopiperidin-3-yl)(methyl)amino)-2-fluorophenyl)piperazin-1-yl)propanoyl)piperidin-4-yl)-3-methoxybenzamide], the “Activity: ratio” value on PLK1 is given as “+++ (+++: <0.3)”. The IC50 is less than 30 nM with H526 cell line and greater than 10000 nM with MRC-5 cell line (setting [1]).

As for `COc1cc(C(=O)NN2CCC(CCN3CCN(c4ccc(N(C)C5CCC(=O)NC5=O)cc4F)CC3)CC2)ccc1Nc1ncc2c(n1)N(C1CCCC1)CC(F)(F)C(=O)N2C` (centres unmarked) [Compound 23, 4-((9-cyclopentyl-7,7-difluoro-5-methyl-6-oxo-6,7,8,9-tetrahydro-5H-pyrimido[4,5-b][1,4]diazepin-2-yl)amino)-N-(4-(2-(4-(4-((2,6-dioxopiperidin-3-yl)(methyl)amino)-2-fluorophenyl)piperazin-1-yl)ethyl)piperidin-1-yl)-3-methoxybenzamide], the “Activity: ratio” value at PLK1 is listed as “+++ (+++: <0.3)”. Moreover, the IC50 in the assay with H526 cell line was less than 30 nM; with MRC-5 cell line (setting [1]) it was greater than 10000 nM.

For the molecule `COc1cc(C(=O)NN2CCC(CCN3CCN(c4cccc(C(=O)NC5CCC(=O)NC5=O)c4)CC3)CC2)ccc1Nc1ncc2c(n1)N(C1CCCC1)CC(F)(F)C(=O)N2C` (centres unmarked) [Compound 10, 4-((9-cyclopentyl-7,7-difluoro-5-methyl-6-oxo-6,7,8,9-tetrahydro-5H-pyrimido[4,5-b][1,4]diazepin-2-yl)amino)-N-(4-(2-(4-(3-((2,6-dioxopiperidin-3-yl)carbamoyl)phenyl)piperazin-1-yl)ethyl)piperidin-1-yl)-3-methoxybenzamide], on PLK1, the “Activity: ratio” value is given as “++ (++<0.6)”. Besides, the IC50 with H526 cell line is less than 30 nM; in the assay on MRC-5 cell line (setting [1]), greater than 10000 nM.

As for `COc1cc(C(=O)NN2CCC(CN3CCN(c4ccc(NC5CCC(=O)NC5=O)cc4C(F)(F)F)CC3)CC2)ccc1Nc1ncc2c(n1)N(C(C)C)CC(F)(F)C(=O)N2C` (centres unmarked) [Compound 21, 4-((7,7-difluoro-9-isopropyl-5-methyl-6-oxo-6,7,8,9-tetrahydro-5H-pyrimido[4,5-b][1,4]diazepin-2-yl)amino)-N-(4-((4-(4-((2,6-dioxopiperidin-3-yl)amino)-2-(trifluoromethyl)phenyl)piperazin-1-yl)methyl)piperidin-1-yl)-3-methoxybenzamide], the “Activity: ratio” value at PLK1 is “++ (++<0.6)”. Also, the concentration for half-maximal inhibition (IC50) in the assay with H526 cell line was less than 100 nM; with MRC-5 cell line (setting [1]) it was greater than 10000 nM.

For the molecule `COc1cc(C(=O)NC2CC3(CCN(CC4CCN(c5ccc(N(C)C6CCC(=O)NC6=O)cc5)CC4)CC3)C2)ccc1Nc1ncc2c(n1)N(C(C)C)CC(F)(F)C(=O)N2C` (centres unmarked) [Compound 27, 4-((7,7-difluoro-9-isopropyl-5-methyl-6-oxo-6,7,8,9-tetrahydro-5H-pyrimido[4,5-b][1,4]diazepin-2-yl)amino)-N-(7-((1-(4-((2,6-dioxopiperidin-3-yl)(methyl)amino)phenyl)piperidin-4-yl)methyl)-7-azaspiro[3.5]nonan-2-yl)-3-methoxybenzamide], the “Activity: ratio” value at PLK1 was “+++ (+++: <0.3)”. For the same molecule, the IC50 with H526 cell line is less than 30 nM.

As to `COc1cc(C(=O)NC2CCN(C(=O)CCN3CCN(c4ccc(C(=O)NC5CCC(=O)NC5=O)cc4)CC3)CC2)ccc1Nc1ncc2c(n1)N(C1CCCC1)CC(F)(F)C(=O)N2C` (centres unmarked) [Compound 4, 4-((9-cyclopentyl-7,7-difluoro-5-methyl-6-oxo-6,7,8,9-tetrahydro-5H-pyrimido[4,5-b][1,4]diazepin-2-yl)amino)-N-(1-(3-(4-(4-((2,6-dioxopiperidin-3-yl)carbamoyl)phenyl)piperazin-1-yl)propanoyl)piperidin-4-yl)-3-methoxybenzamide], on PLK1, the “Activity: ratio” value is recorded as “+ (+<0.7)”.

As for `COc1cc(C(=O)NN2CCC(N3CC4(CCN(c5cccc6c5n(C)c(=O)n6C5CCC(=O)NC5=O)CC4)C3)CC2)ccc1Nc1ncc2c(n1)N(C(C)C)CC(F)(F)C(=O)N2C` (centres unmarked) [Compound 41, 4-((7,7-difluoro-9-isopropyl-5-methyl-6-oxo-6,7,8,9-tetrahydro-5H-pyrimido[4,5-b][1,4]diazepin-2-yl)amino)-N-(4-(7-(1-(2,6-dioxopiperidin-3-yl)-3-methyl-2-oxo-2,3-dihydro-1H-benzo[d]imidazol-4-yl)-2,7-diazaspiro[3.5]nonan-2-yl)piperidin-1-yl)-3-methoxybenzamide], at PLK1, the “Activity: ratio” value is “+ (+<0.7)”.

With `COc1cc(C(=O)NC2CC3(CCN(CC4CCN(c5ccc6c(N7CCC(=O)NC7=O)nn(C)c6c5)CC4)CC3)C2)ccc1Nc1ncc2c(n1)N(C1CCCC1)CC(F)(F)C(=O)N2C` [Compound 40, 4-((9-cyclopentyl-7,7-difluoro-5-methyl-6-oxo-6,7,8,9-tetrahydro-5H-pyrimido[4,5-b][1,4]diazepin-2-yl)amino)-N-(7-((1-(3-(2,4-dioxotetrahydropyrimidin-1 (2H)-yl)-1-methyl-1H-indazol-6-yl)piperidin-4-yl)methyl)-7-azaspiro[3.5]nonan-2-yl)-3-methoxybenzamide], in the assay with H526 cell line, the IC50 is less than 30 nM.

As for `COc1cc(C(=O)NC2CCN(C(=O)CCN3CCN(c4ccc(C(=O)NC5CCC(=O)NC5=O)nc4)CC3)CC2)ccc1Nc1ncc2c(n1)N(C1CCCC1)CC(F)(F)C(=O)N2C` (centres unmarked) [Compound 7, 5-(4-(3-(4-(4-((9-cyclopentyl-7,7-difluoro-5-methyl-6-oxo-6,7,8,9-tetrahydro-5H-pyrimido[4,5-b][1,4]diazepin-2-yl)amino)-3-methoxybenzamido)piperidin-1-yl)-3-oxopropyl)piperazin-1-yl)-N-(2,6-dioxopiperidin-3-yl)picolinamide], the “Activity: ratio” value on PLK1 is given as “+ (+<0.7)”.

Turning to `COc1cc(C(=O)NN2CCC(N3CC4(CCN(c5ccc(N(C)C6CCC(=O)NC6=O)cc5)CC4)C3)CC2)ccc1Nc1ncc2c(n1)N(C(C)C)CC(F)(F)C(=O)N2C` (centres unmarked) [Compound 31, 4-((7,7-difluoro-9-isopropyl-5-methyl-6-oxo-6,7,8,9-tetrahydro-5H-pyrimido[4,5-b][1,4]diazepin-2-yl)amino)-N-(4-(7-(4-((2,6-dioxopiperidin-3-yl)(methyl)amino)phenyl)-2,7-diazaspiro[3.5]nonan-2-yl)piperidin-1-yl)-3-methoxybenzamide], the “Activity: ratio” value at PLK1 is “++ (++<0.6)”. For the same molecule, the IC50 with H526 cell line is less than 100 nM.
